Molecular target: T1, Flag/GST-tagged recombinant human B-Raf (Homo sapiens, UniProt P15056)
T1 construct: Flag; GST; made in house; host or cells: Sf9 insect cells (B-Raf); E. coli (MEK1-GST)
Test: B-Raf kinase assay (phosphorylation of GST-MEK1, phospho-MEK1 antibody/Europium detection)
Assay type: biochemical
Settings: B-Raf IC50 Data for compounds of Formula A; read-out: Mean IC50
Summary of the method: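 Active B-Raf (0.2 nM) phosphorylates GST-MEK1 in 20 mM MOPS pH 7.2 buffer with DTT, vanadate and 0.01% Triton X-100. The Mg/ATP cocktail (200 μM ATP, 40 mM MgCl2) is added, then incubation runs 45 min at RT. Product is captured on anti-GST plates and detected by anti-phospho-MEK1 plus Europium-anti-rabbit fluorescence, giving % inhibition per concentration.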

T1 sequence (P15056 whole entry): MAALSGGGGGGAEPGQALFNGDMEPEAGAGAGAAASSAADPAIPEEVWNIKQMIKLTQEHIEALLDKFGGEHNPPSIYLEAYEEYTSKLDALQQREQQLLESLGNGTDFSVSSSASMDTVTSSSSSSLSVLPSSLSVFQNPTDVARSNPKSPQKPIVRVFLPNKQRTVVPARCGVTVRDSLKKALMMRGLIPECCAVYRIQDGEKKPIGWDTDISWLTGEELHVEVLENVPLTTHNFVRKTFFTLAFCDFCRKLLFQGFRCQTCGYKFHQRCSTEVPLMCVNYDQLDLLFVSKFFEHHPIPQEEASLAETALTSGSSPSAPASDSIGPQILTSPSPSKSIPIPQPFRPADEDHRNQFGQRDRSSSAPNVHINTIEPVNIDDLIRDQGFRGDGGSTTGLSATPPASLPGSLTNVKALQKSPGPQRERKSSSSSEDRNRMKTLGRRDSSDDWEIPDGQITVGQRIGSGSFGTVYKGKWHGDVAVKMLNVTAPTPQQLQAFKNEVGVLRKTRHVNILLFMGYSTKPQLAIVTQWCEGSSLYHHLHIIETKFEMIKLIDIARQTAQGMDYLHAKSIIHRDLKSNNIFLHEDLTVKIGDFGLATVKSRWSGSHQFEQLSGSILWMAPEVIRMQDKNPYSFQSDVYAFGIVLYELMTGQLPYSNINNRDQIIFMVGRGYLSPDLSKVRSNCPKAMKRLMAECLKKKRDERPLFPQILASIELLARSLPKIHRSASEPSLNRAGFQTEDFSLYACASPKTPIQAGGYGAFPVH

Row | Structure (SMILES) | IC50
1 | CN1C[C@@H]2C[C@H]1CN2c1cc(F)cc(F)c1-c1ccnc2c(-c3cccc4[nH]ncc34)c(-c3ccncc3)nn12 [Example 147, 7-{2,4-difluoro-6-[(1S,4S)-5-methyl-2,5-diazabicyclo[2.2.1]hept-2-yl]phenyl}-3-(1H-indazol-4-yl)-2-pyridin-4-ylpyrazolo[1,5-a]pyrimidine] | > 100 nM
2 | CN(C)c1cc(N2C[C@@H]3C[C@H]2CN3C)ccc1-c1ccnc2c(-c3cccc4[nH]ncc34)c(-c3ccncc3)nn12 [Example 148, 2-[3-(1H-indazol-4-yl)-2-pyridin-4-ylpyrazolo[1,5-a]pyrimidin-7-yl]-N,N-dimethyl-5-[(1S,4S)-5-methyl-2,5-diazabicyclo[2.2.1]hept-2-yl]aniline] | 7.3 nM
3 | c1cc(-c2c(-c3ccncc3)nn3c2nccc3[C@H]2CC[C@@H](N3C[C@@H]4C[C@H]3CN4)CC2)c2cn[nH]c2c1 [Example 149, 7-{cis-4-[(1S,4S)-2,5-diazabicyclo[2.2.1]hept-2-yl]cyclohexyl}-3-(1H-indazol-4-yl)-2-pyridin-4-ylpyrazolo[1,5-a]pyrimidine] | 3.2 nM
4 | c1cc(-c2c(-c3ccncc3)nn3c2nccc3[C@H]2CC[C@@H](N3C[C@@H]4C[C@H]3CO4)CC2)c2cn[nH]c2c1 [Example 154, 3-(1H-indazol-4-yl)-7-{cis-4-[(1S,4S)-2-oxa-5-azabicyclo[2.2.1]hept-5-yl]cyclohexyl}-2-pyridin-4-ylpyrazolo[1,5-a]pyrimidine] | 11.4 nM
5 | c1cc(-c2c(-c3ccncc3)nn3c2nccc3[C@H]2CC[C@H](N3C[C@@H]4C[C@H]3CO4)CC2)c2cn[nH]c2c1 [Example 155, 3-(1H-indazol-4-yl)-7-{trans-4-[(1S,4S)-2-oxa-5-azabicyclo[2.2.1]hept-5-yl]cyclohexyl}-2-pyridin-4-ylpyrazolo[1,5-a]pyrimidine] | 3.5 nM
6 | c1cc(-c2c(-c3ccncc3)nn3c2nccc3[C@H]2CC[C@H](N3C[C@@H]4C[C@H]3CN4)CC2)c2cn[nH]c2c1 [Example 156, 7-{trans-4-[(1S,4S)-2,5-diazabicyclo[2.2.1]hept-2-yl]cyclohexyl}-3-(1H-indazol-4-yl)-2-pyridin-4-ylpyrazolo[1,5-a]pyrimidine] | 0.6 nM
7 | FC(F)(F)c1cc(-c2ccnc3c(-c4cccc5[nH]ncc45)c(-c4ccncc4)nn23)ccc1N1C[C@@H]2C[C@H]1CN2 [Example 157, 7-{4-[(1S,4S)-2,5-diazabicyclo[2.2.1]hept-2-yl]-3-(trifluoromethyl)phenyl}-3-(1H-indazol-4-yl)-2-pyridin-4-ylpyrazolo[1,5-a]pyrimidine] | 1.2 nM
8 | c1cc(-c2c(-c3ccncc3)nn3c(-c4ccc(N5C[C@@H]6C[C@H]5CN6)c5ccccc45)ccnc23)c2cn[nH]c2c1 [Example 158, 7-{4-[(1S,4S)-2,5-diazabicyclo[2.2.1]hept-2-yl]-1-naphthyl}-3-(1H-indazol-4-yl)-2-pyridin-4-ylpyrazolo[1,5-a]pyrimidine] | 20.9 nM
9 | CN1C[C@@H]2C[C@H]1CN2c1ccc(-c2ccnc3c(-c4cccc5[nH]ncc45)c(-c4ccncc4)nn23)cc1C(F)(F)F [Example 159, 3-(1H-indazol-4-yl)-7-{4-[(1S,4S)-5-methyl-2,5-diazabicyclo[2.2.1]hept-2-yl]-3-(trifluoromethyl)phenyl}-2-pyridin-4-ylpyrazolo[1,5-a]pyrimidine] | 2 nM
10 | CN1C[C@@H]2C[C@H]1CN2c1ccc(-c2ccnc3c(-c4cccc5[nH]ncc45)c(-c4ccncc4)nn23)c2ccccc12 [Example 160, 3-(1H-indazol-4-yl)-7-{4-[(1S,4S)-5-methyl-2,5-diazabicyclo[2.2.1]hept-2-yl]-1-naphthyl}-2-pyridin-4-ylpyrazolo[1,5-a]pyrimidine] | 25.3 nM
11 | Fc1cc(-c2ccnc3c(-c4cccc5[nH]ncc45)c(-c4ccncc4)nn23)cc(F)c1N1C[C@@H]2C[C@H]1CN2 [Example 161, 7-{4-[(1S,4S)-2,5-diazabicyclo[2.2.1]hept-2-yl]-3,5-difluorophenyl}-3-(1H-indazol-4-yl)-2-pyridin-4-ylpyrazolo[1,5-a]pyrimidine] | 2.7 nM

Reference: US20100029657A1, “Bridged, Bicyclic Heterocyclic or Spiro Bicyclic Heterocyclic Derivatives of Pyrazolo[1, 5-A]Pyrimidines, Methods for Preparation and Uses Thereof” (Wyeth, priority 2008, published 2010)
